Key:
human NaPi-IIb = biological target: T1, human NaPi-IIb (Homo sapiens, UniProt O95436); assay: 33PO4 uptake inhibition in CHO cells expressing human NaPi-IIb; assay type: cell-based; details: CHO cells transiently expressing human NaPi-IIb, pH 6.5
T1 construct: expressed in transfected cells; host or cells: CHO cells, transient transfection with Fugene HD
T1 sequence (O95436 1-690): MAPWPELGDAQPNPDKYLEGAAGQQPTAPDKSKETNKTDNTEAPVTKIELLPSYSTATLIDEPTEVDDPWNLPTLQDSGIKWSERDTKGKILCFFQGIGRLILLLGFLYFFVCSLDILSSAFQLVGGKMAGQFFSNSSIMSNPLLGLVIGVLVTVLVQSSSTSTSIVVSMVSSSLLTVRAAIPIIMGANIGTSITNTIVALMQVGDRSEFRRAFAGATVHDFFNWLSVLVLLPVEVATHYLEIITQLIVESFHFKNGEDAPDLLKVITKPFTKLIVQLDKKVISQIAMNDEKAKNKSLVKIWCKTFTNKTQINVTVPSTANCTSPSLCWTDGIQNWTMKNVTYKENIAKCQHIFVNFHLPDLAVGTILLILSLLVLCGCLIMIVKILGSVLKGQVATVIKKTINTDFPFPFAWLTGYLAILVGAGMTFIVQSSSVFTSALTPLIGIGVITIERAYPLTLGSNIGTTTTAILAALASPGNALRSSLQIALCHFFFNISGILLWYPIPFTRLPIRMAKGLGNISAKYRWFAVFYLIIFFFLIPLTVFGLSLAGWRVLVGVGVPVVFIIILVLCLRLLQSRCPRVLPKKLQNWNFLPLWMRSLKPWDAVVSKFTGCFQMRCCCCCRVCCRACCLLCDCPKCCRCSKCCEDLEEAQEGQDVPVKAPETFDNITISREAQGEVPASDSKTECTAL
Procedure: For transient expression, human NaPi-IIb expression plasmids, human PiT1 expression plasmids, human PiT2 expression plasmids, and Fugene HD Transfection (Promega Corporation) were added to CHO cells using a 96-well plate, and the plate was incubated in a C02 incubator for 16 hours. The medium was replaced with buffer A (145 mM choline chloride, 3 mM KCl, 1 mM CaCl2), 0.5 mM MgCl2, 5 mM glucose, 5 mM MES, (pH 6.5)), and then replaced with buffer B (145 mM NaCl, 3 mM KCl, 1 mM CaCl2, 0.5 mM MgCl2, 5 mM glucose, 5 mM MES (pH 6.5)) to which a test compound was added at the final concentration of 0.01, 0.03, 0.1, 0.3, 1, 3, 10, or 30 μM, buffer A to which DMSO was added, or buffer B to which DMSO was added. After a certain time, a 1/20 amount of buffer A containing ^33PO4 (PerkinElmer Japan G. K.) was added and reacted at room temperature. After washing with ice-cooled buffer A, a liquid scintillator (MicroScint™-20, item number 6013621, PerkinElmer Japan G.K.) was added, and the ^33PO4 uptake amount was measured with the top count (Top Count NXT, PerkinElmer Japan G.K.). The inhibition rate was determined by the following formula. Here, a certain time was set to 10 minutes. The phrase “a 1/20 amount of buffer A containing ^33PO4 (PerkinElmer Japan G.K.) was added” refers to “buffer A containing ^33PO4 (PerkinElmer Japan G.K.) was added in an amount of 1/20 of the amount of solution filling the medium”.
The 50% ^33PO4-uptake inhibition concentrations (ICs) (UM) in a cell expressing human NaPi-Ilb, human PiT1, and human PiT2 were calculated from a straight line through two points sandwiching 50% inhibition rate. It should be noted that compounds 1 and 2 were not measured for baman PiT1 and human PiT2, which was indicated as “-” in Table 1.

[1] = tested on: primary cells from kidney tissues of human ADPKD patients; assay: Inhibition of three-dimensional cyst formation using primary cells from kidney tissue of human ADPKD patient; assay type: cell-based; details: 168 h, test compound 30 μM, forskolin + ITS stimulation, 7 days 3D culture, average N=3, read-out: Inhibition rate (%) of cyst formation
Procedure: Primary cells were isolated from kidney tissues of human ADPKD patients. Under two-dimensions, the isolated cells were cultured for 2 days using DMEM/F-12 (Thermo Fisher Scientific, Inc.) supplemented with 10% FBS. Subsequently, three-dimensional culture was performed for 7 days using 3D Ready Atelocollagen (KOKEN CO., LTD.). During three-dimensional culture, 50 µM forskolin (Sigma-Aldrich Co. LLC) and ITS liquid media supplements (Sigma-Aldrich Co. LLC) were added as stimulating agents to some of the wells to form cysts, and a test compound was added at the final concentration of 30 μM. The test compound was also added to other wells at the final concentration of 30 μM. After 7 days of three-dimensional culture, it was fixed with 4% paraformaldehyde (Thermo Fisher Scientific, Inc.), and nucleic acid staining and cell membrane staining were performed with Hoechst 33342 (Thermo Fisher Scientific, Inc.) and CellLight Plasma Membrane-RFP, BacMam 2.0 (Thermo Fisher Scientific, Inc.). Three-dimensional imaging and volume analysis were performed using Operetta CLS and image analysis software Harmony (PerkinElmer Japan G.K.). The inhibition rate was determined by the following formula.

[2] = tested on: PC1 conditional knockout mice (PKD model); assay: Suppression of increase in renal volume and decrease in renal function in PC1 conditional knockout mice; assay type: in vivo, mouse
Procedure: The PC1 conditional knockout mice, a PKD model, were used to evaluate the effects of tolvaptan and compound 4 in Test Example 1 on (a) renal volume, (b) body weight, and (c) urine volume in PC1 conditional knockout mouse.
Tamoxifen was orally administered to PC1 conditional knockout mice at a dose of 3 mg/kg for 3 days from day 21 after birth. The PC1 conditional knockout mice (5 weeks of age at the start of this test) were grouped into 3 groups of 15 mice each. Compound 4 or tolvaptan was administered as a single agent to the test compound administration group. The administration period was 16 weeks, and they were administered subcutaneously once daily. Compound 4 was administered at 33-40 mg/kg per dose and tolvaptan was administered at 25-30 mg/kg per dose. Compound 4 and tolvaptan were administered after dissolved in 50% DMSO/50% glycerol. A group of mice to which tamoxifen was not administered was provided as a normal control group (Normal Control) (N=7). The 50% DMSO/50% glycerol was administered to the normal control group and the Vehicle group of PC1 conditional knockout mice at 1 mL/kg.
The left renal volume (renal volume (mL)) of mice was calculated by the following formula using echography 16 weeks after the start of administration of the test compound.
After that, euthanasia treatment was performed. In addition, the body weight (Body weight (g)) of mice was measured every 7 days after the start of administration of the test compound. Furthermore, the volume of urine (Urine volume (mL/day)) was calculated from the specific gravity and measured weight of urine 16 weeks after the start of administration of the test compound.

**Q.** For CCCN([C@H]1CC[C@H](C(=O)[O-])CC1)S(=O)(=O)c1cccc(C(=O)Nc2sc3c(c2C(=O)Nc2ccc(CCCc4ccc(C(=O)[O-])cc4)cc2)CCCC3)c1.[Na+].[Na+] [Compound 4, Disodium; 4-[3-[4-[[2-[[3-[(4-carboxylatocyclohexyl)-propylsulfamoyl]benzoyl]ami-no]-4,5,6,7-tetrahydro-1-benzothiophene-3-carbonyl]amino]phenyl]pro-pyl]benzoic acid], which IC50 (human NaPi-IIb) is on record?
**A.** The IC50 was 0.031 µM.

**Q.** And the inhibition at 30 µM [1]?
**A.** The inhibition at 30 µM was 94.4%.

**Q.** What about the “Body weight (weight loss)” value ([2]; 16 weeks administration, compared to tolvaptan) of the same molecule?
**A.** Its value is “less weight loss”.

**Q.** And the Urine volume ([2]; 16 weeks after start of administration, compared to tolvaptan)?
**A.** The Urine volume was “no increase in urine volume”.

**Q.** And the “Suppression effect on decrease in renal function” value ([2]; 33-40 mg/kg s.c. once daily, 16 weeks)?
**A.** Its value is “suppression effect”.

**Q.** What about the “Suppression effect on increase in renal volume” value ([2]; 33-40 mg/kg s.c. once daily, 16 weeks, left renal volume by echography) of the same molecule?
**A.** The value was “suppression effect”.

Reference: US20250302833A1, “PHARMACEUTICAL COMPOSITION FOR TREATING OR PREVENTING CYSTIC DISEASE” (CHUGAI SEIYAKU KABUSHIKI KAISHA, priority 2022, published 2025)
